Measurements reported in ChEMBL document CHEMBL5465560, “Selectivity Literature for EUbOPEN Chemogenomic Library” (2024).
Values belong to the molecule of their own block, whether it stands above or below them.

What was measured:
[1] = biological target: T1, Serine/threonine-protein kinase D1 (Homo sapiens) (UniProt Q15139); test: Selectivity interaction (Ambit KINOMEscan and KiNATiv profiling in Jurkat cells) EUB0000090b PRKD1; type: cell-based; settings: at 1 µM
T1 sequence (whole entry): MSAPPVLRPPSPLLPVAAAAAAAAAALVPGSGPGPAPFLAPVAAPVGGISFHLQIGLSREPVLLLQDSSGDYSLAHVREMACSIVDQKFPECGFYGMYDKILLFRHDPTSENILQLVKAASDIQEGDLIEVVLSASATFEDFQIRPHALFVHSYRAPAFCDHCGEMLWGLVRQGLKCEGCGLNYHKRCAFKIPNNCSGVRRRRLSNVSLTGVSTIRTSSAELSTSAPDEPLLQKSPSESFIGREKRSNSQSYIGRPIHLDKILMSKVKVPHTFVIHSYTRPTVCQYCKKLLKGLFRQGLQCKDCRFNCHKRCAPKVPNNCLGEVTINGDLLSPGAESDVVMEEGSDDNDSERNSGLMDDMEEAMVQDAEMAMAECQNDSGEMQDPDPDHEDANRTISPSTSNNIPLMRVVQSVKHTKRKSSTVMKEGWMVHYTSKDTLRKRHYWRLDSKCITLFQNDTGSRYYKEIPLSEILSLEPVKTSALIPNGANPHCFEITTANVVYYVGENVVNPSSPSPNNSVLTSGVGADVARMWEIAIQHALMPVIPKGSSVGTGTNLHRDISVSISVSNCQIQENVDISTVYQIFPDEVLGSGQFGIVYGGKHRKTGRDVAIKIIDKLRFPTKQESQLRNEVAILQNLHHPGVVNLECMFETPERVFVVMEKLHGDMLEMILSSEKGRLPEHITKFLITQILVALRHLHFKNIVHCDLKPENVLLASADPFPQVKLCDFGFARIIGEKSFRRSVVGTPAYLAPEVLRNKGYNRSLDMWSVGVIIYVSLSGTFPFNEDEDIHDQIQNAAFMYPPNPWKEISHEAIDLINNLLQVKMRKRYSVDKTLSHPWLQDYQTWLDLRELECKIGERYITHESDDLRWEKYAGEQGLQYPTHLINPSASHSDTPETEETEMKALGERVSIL

[2] = biological target: Ribosomal protein S6 kinase alpha-1 (Homo sapiens, UniProt Q15418); test: Selectivity interaction (KinomeScan (DiscoverX)) EUB0001619a RPS6KA1; settings: at 1 µM
[3] = biological target: T2, Serine/threonine-protein kinase Nek1 (Homo sapiens) (UniProt Q96PY6); test: Selectivity interaction (Kinase panel (Invitrogen)) EUB0000639a NEK1; settings: at 200 nM
T2 sequence (whole entry): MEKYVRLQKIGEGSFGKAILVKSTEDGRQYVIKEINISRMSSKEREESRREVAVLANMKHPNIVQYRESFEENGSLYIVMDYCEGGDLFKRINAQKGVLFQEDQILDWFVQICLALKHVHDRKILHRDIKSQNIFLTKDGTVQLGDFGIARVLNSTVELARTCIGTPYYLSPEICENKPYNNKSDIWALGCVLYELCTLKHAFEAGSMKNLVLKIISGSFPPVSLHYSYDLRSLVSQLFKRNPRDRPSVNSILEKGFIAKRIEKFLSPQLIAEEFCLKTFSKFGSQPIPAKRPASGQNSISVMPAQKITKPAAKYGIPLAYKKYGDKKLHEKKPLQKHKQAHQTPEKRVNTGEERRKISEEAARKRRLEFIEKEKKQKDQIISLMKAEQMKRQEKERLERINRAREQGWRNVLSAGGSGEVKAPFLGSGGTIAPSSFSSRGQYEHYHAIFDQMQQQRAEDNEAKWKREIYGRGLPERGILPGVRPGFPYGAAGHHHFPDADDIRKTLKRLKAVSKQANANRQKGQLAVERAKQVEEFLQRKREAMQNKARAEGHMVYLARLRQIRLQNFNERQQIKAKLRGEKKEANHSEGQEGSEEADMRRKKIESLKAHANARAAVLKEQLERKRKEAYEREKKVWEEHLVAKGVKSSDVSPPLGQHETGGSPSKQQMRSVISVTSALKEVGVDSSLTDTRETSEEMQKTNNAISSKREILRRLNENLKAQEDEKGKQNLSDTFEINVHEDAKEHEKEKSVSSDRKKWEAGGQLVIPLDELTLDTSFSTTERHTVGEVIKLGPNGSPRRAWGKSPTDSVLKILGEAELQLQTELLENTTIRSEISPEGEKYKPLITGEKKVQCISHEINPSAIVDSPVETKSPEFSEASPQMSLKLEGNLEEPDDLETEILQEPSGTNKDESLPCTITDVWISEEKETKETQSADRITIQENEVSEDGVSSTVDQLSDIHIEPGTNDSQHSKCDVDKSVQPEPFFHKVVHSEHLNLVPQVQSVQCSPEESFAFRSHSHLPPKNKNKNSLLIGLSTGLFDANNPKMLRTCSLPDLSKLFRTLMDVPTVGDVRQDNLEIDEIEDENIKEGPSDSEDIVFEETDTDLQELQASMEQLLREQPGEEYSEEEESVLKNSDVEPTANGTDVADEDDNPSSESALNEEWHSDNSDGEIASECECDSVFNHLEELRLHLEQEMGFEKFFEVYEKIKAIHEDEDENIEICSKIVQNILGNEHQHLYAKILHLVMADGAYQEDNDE

[4] = biological target: T3, Serine/threonine-protein kinase Sgk3 (Homo sapiens) (UniProt Q96BR1); test: Selectivity interaction (KinomeScan (DiscoverX)) EUB0000666a SGK3; settings: at 10 µM
T3 sequence (whole entry): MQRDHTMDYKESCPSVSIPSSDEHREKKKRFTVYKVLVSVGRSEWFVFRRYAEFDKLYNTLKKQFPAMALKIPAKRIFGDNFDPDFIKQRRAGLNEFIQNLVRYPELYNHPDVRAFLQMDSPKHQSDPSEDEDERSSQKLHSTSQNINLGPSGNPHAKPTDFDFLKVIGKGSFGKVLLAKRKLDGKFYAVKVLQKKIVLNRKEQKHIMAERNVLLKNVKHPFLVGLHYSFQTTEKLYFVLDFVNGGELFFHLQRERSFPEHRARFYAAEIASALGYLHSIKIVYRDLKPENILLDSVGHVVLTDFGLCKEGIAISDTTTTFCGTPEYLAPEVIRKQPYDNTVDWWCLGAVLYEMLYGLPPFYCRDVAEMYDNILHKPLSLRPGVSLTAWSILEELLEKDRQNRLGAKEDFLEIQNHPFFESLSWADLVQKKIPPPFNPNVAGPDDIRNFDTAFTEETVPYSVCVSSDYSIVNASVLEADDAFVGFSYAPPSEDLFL

[5] = biological target: Mast/stem cell growth factor receptor Kit (Homo sapiens, UniProt P10721); test: (§1) Selectivity interaction (Kinase panel (Z-LYTE Assay)) EUB0001632a KIT; settings: at 10 µM
[6] = system: Mast/stem cell growth factor receptor Kit (Homo sapiens), P10721 [T670I]; test: as §1; settings: at 10 µM
[7] = system: Mast/stem cell growth factor receptor Kit (Homo sapiens), P10721 [V559D]; test: as §1; settings: at 10 µM
[8] = system: Mast/stem cell growth factor receptor Kit (Homo sapiens), P10721 [V560G]; test: as §1; settings: at 10 µM
[9] = system: Mast/stem cell growth factor receptor Kit (Homo sapiens), P10721 [V559D,V654A]; test: as §1; settings: at 10 µM
Mast/stem cell growth factor receptor Kit (Homo sapiens), P10721 [V559D,V654A], sequence (P10721 whole entry V559D/V654A): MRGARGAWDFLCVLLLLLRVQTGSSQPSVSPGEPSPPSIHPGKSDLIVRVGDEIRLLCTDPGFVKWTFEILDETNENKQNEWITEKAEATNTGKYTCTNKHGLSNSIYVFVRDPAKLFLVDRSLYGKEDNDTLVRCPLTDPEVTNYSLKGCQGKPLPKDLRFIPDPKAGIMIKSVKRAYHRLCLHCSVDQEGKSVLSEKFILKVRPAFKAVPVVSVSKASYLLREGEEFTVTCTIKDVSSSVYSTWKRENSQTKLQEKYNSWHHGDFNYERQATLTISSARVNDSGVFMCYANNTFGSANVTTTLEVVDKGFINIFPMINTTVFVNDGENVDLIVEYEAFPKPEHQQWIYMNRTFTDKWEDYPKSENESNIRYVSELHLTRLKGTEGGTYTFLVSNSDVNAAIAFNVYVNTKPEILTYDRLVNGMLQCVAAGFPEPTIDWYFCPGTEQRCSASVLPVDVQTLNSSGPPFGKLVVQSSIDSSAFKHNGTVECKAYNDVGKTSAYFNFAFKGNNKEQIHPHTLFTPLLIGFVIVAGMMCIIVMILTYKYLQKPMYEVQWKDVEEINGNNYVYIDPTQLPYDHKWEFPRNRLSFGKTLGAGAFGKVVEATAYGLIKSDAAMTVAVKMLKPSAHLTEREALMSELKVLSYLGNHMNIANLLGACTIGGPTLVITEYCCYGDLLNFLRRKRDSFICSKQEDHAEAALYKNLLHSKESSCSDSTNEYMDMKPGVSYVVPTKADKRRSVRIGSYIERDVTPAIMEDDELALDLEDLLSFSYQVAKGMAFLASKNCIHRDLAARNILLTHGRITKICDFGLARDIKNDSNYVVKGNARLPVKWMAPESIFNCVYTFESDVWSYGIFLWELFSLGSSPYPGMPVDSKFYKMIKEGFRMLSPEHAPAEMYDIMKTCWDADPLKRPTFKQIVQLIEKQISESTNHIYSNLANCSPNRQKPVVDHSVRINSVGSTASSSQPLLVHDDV

Mast/stem cell growth factor receptor Kit (Homo sapiens), P10721 [V560G], sequence (P10721 whole entry V560G): as the sequence (P10721 whole entry V559D/V654A) above, with D559V, V560G, A654V counted along it
Ribosomal protein S6 kinase alpha-1, sequence (Q15418 whole entry): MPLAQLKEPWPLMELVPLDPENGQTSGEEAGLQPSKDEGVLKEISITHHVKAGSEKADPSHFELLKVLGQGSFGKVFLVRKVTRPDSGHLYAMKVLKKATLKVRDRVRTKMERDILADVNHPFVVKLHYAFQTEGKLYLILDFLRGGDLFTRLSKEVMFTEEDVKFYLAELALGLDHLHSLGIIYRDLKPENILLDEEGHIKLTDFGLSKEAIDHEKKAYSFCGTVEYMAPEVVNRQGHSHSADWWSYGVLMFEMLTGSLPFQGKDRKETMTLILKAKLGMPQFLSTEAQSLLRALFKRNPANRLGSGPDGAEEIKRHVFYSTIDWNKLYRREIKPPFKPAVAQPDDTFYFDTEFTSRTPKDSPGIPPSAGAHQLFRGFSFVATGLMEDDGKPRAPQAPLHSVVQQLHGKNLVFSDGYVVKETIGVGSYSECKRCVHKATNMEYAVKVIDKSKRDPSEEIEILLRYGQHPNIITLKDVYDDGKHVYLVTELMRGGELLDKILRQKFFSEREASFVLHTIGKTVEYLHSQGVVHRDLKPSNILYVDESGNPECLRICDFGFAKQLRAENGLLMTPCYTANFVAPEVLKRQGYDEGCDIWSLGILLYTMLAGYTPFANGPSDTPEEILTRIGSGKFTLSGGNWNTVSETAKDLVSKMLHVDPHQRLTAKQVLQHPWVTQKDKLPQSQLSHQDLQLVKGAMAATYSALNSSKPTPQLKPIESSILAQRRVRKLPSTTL
Mast/stem cell growth factor receptor Kit (Homo sapiens), P10721 [V559D], sequence (P10721 whole entry V559D): as the sequence (P10721 whole entry V559D/V654A) above, with A654V counted along it
Mast/stem cell growth factor receptor Kit (Homo sapiens), P10721 [T670I], sequence (P10721 whole entry T670I): as the sequence (P10721 whole entry V559D/V654A) above, with D559V, A654V, T670I counted along it
Mast/stem cell growth factor receptor Kit, sequence (P10721 whole entry): as the sequence (P10721 whole entry V559D/V654A) above, with D559V, A654V counted along it

Compound: CN(C)C/C=C/C(=O)Nc1ccc(C(=O)N2CCCC(Nc3ncc(Cl)c(-c4c[nH]c5ccccc45)n3)C2)cc1 (centres undefined)
% of control [1]: 31%

Compound: N#Cc1cccc(-c2c[nH]c3ncnc(N4CCOCC4)c23)c1
% of control [2]: 27%

% of inhibition [3]: 10.2%
Compound: CC[C@@H]1[C@H](F)C(=O)N[C@@H]1COc1nccc2cc(C(N)=O)c(OC)cc12 [ZIMLOVISERTIB]

Compound: O=C(NOC[C@H](O)CO)c1ccc(F)c(F)c1Nc1ccc(I)cc1F
% of control [4]: 89%

% of control [5]: 7.07% | % of control [6]: 0.683% | % of control [7]: 6.85% | % of control [8]: 1.94% | % of control [9]: 0.874%
Compound: Cn1cc(-n2cnc3c(NCc4nc5cc(Cl)c(Cl)cc5[nH]4)nc(N4CCOCC4)nc32)cn1
